Measured values from patent publication US9605017B2, “2′, 5′-dideoxy-5-fluorouridine derivatives having cytotoxic activity, a process for the manufacture thereof and application thereof” (ADAM MICKIEWICZ UNIVERSITY, priority 2014, dated 2017).
In brackets after ≈: the same amount, converted by molar mass. Several values for one entry are separate records, joined by “and”; a condition that tells them apart may be missing. Equal entries are not always repeated. Where two headings read alike, the source gives them in different places.

How the values were obtained:
A549 (lung cancer) = assay: Cytotoxicity test with sulphorhodamine B, 72 h, A549 line; conditions: Homo sapiens
Description: (§1) Cytotoxic activity tests were performed using the following cancer cell lines: MCF-7 (breast cancer), HeLa (cervical cancer) A549 (lung cancer) and KB (nasopharynx cancer) obtained from ECACC (European Collection of Cell Cultures).
(§2) Cytotoxicity tests were carried out using a standard procedure with sulphorhodamine B. They involved incubation of the cancer cell lines in the logarithmic growth phase for 72 hours with the compound tested and, subsequently, spectrophotometric determination of the degree of cell growth inhibition using adsorption of a dye (sulphorhodamine B) which binds cellular proteins.
(§3) Cells of the cell line tested in the logarithmic growth phase were seeded onto 24-well plates in a quantity of 20,000 cells/2 mL of the growth medium per well and, subsequently, incubated in an incubator at 37° C., in the 5% CO2 atmosphere for 24 hours.
(§4) Solutions of the test compounds were prepared in DMSO in the following concentration range: 0.05; 0.1; 0.5; 1; 5; 10; 50; 100; 500 μM.
(§5) The cells of the lines tested were treated with the solutions of the test compounds in a laminar-flow chamber which ensured sterile working conditions according to the following procedure: the first three wells were used as a control: they contained 20 μL of DMSO only; successive solutions of the test compound were added to subsequent wells (20 μL), starting with the lowest concentration (three wells for each concentration level). Subsequently, the plates were placed in an incubator for 72 hours.
(§6) After the end of incubation, the adhered cells were fixed by adding 500 μL of cold (4° C.) 50% trichloroacetic acid (TCA) and incubated at 4° C. for 1 hour. Subsequently, each well was rinsed with sterile water and dried. The operation was repeated five times. The fixed cells were stained for 30 minutes by adding 500 μL of 0.4% of a dye solution (sulphorhodamine B) dissolved in 1% acetic acid. Any unbound dye was removed by decanting it from the plate, and the cells were washed 4 times with 1% acetic acid. Subsequently, the plates were dried in air for approx. 5 minutes. Any unbound dye was dissolved by adding 1500 μL of 10 mM Tris-base buffer (trishydroxymethylaminomethane) to each well and shaken using an orbital shaker for 5 minutes. Subsequently, 200 μL of solution from each well was transferred to each of two wells on a new 96-well plate and absorption of the solutions was determined spectrophotometrically at a wavelength of 490-530 nm using a plate reader. Percentage inhibition of cell growth by the test compound was calculated assuming the absorption of the control solution as 100%.
(§7) Cytotoxicity tests for the other compounds and cell lines were performed following an identical procedure.
(§8) Depending on the type of the cell line, the following growth media were used: • the MCF-7 line was grown in Dulbecco's Modified Eagle's Medium (DME) from Sigma (cat. no. D5796) • the HeLa, A549 and KB lines were grown in RPMI-1640 Medium from Sigma (cat. no. R8758).
(§9) IC50 values, being concentration of a compound needed to obtain 50% inhibition of cell growth, were determined for all the derivatives tested.
(§10) To enable comparison, identical tests were performed using known cytotoxic agents: 5-fluoro-2′-deoxyuridine, 5-fluorouracil and 5′-azido-2′,5′-dideoxy-5-fluorouridine.
(§11) The values are average results of three independent determinations.

KB (nasopharynx cancer) = assay: Cytotoxicity test with sulphorhodamine B, 72 h, KB line; conditions: read-out: Cytotoxic activity, IC50 KB (nasopharynx cancer)
Description: as §1, §2, §3, §4, §5, §6, §7, §8, §9, §10, §11

HeLa (cervical cancer) = assay: Cytotoxicity test with sulphorhodamine B, 72 h, HeLa line; conditions: for IC50: Homo sapiens, HeLa; for activity compared to 5FU, cervical cancer cells: relative to 5FU
Description: as §1, §2, §3, §4, §5, §6, §7, §8, §9, §10, §11

MCF-7 (breast cancer) = assay: Cytotoxicity test with sulphorhodamine B, 72 h, MCF-7 line; conditions: for IC50: Homo sapiens; for higher activity than 5AddFU, breast cancer cells: relative to 5AddFU; for higher activity than 5FU, breast cancer cells: relative to 5FU; for higher activity than 5FdU, breast cancer cells: relative to 5FdU
Description: as §1, §2, §3, §4, §5, §6, §7, §8, §9, §10, §11

[1] = test system: MCF-7, HeLa, A549 and KB cancer cell lines; assay: Cytotoxic activity tests, overall statement over the four cancer cell lines; conditions: in words
Description: as §1, §2, §9, §10

[2] = test system: mouse tumour cells (S-180 line); conditions: at concentrations as high as 400 μM; cited from earlier work
[3] = A549, 72 h, read-out: Cytotoxic activity, IC50 A549 (lung cancer)
[4] = A549, read-out: Cytotoxic activity class, A549 (lung cancer)
[5] = 72 h, read-out: Cytotoxic activity, IC50 HeLa (cervical cancer)
[6] = read-out: Cytotoxic activity class, HeLa (cervical cancer)
[7] = MCF7, 72 h, read-out: Cytotoxic activity, IC50 MCF-7 line (breast cancer)
[8] = MCF7, read-out: Cytotoxic activity class, MCF-7 line (breast cancer)

Structure (SMILES) | IC50 (A549 (lung cancer); [3]) | IC50 (A549 (lung cancer); [4]) | IC50 (KB (nasopharynx cancer)) | IC50 (HeLa (cervical cancer); [5]) | IC50 (HeLa (cervical cancer); [6]) | activity compared to 5FU, cervical cancer cells (HeLa (cervical cancer)) | IC50 (MCF-7 (breast cancer); [7]) | IC50 (MCF-7 (breast cancer); [8]) | higher activity than 5AddFU, breast cancer cells (MCF-7 (breast cancer)) | higher activity than 5FU, breast cancer cells (MCF-7 (breast cancer)) | higher activity than 5FdU, breast cancer cells (MCF-7 (breast cancer)) | Cytotoxic activity, overall verbal grade [1] | Cytotoxic activity, overall verbal grade ([1]; listed as 5FU) | Cytotoxic activity, overall verbal grade ([1]; listed as 5FdU) | Cytotoxic activity, overall verbal grade ([1]; listed as 5AddFU) | cell growth inhibition [2]
O=c1[nH]c(=O)n(C2CC(O)C(Cn3cc(C4CN5CCC4C[C@@H]5[C@@H](O)c4ccnc5ccccc45)nn3)O2)cc1F (stereo partly shown) [CN5AFU, 5-Fluoro-1-(4-hydroxy-5-{4-[6-(hydroxy-quinolin-4-yl-methyl)-1-aza-bicyclo[2.2.2]oct-3-yl]-[1,2,3]triazol-1-ylmethyl}-tetrahydrofuran-2-yl)-1H-pyrimidine-2,4-dione] | 3.1 µg/mL and 5.5 µM | < 4 µg/mL | 2.9 µg/mL and 5.15 µM | 3.1 µg/mL and 5.5 µM | < 4 µg/mL | comparable activity | 2.8 µg/mL and 4.97 µM | < 4 µg/mL | 3 fold | 1.4 fold | 1.6 fold |  |  |  |  | 
C=CC1C[N@@]2CCC1C[C@@H]2[C@@H](OCc1cn(CC2OC(n3cc(F)c(=O)[nH]c3=O)CC2O)nn1)c1ccnc2ccc(OC)cc12 (stereo partly shown) [PQD5AFU, 5-Fluoro-1-(4-hydroxy-5-{4-[(6-methoxy-quinolin-4-yl)-(5-vinyl-1-aza-bicyclo[2.2.2]oct-2-yl)-methoxymethyl]-[1,2,3]triazol-1-ylmethyl}-tetrahydrofuran-2-yl)-1H-pyrimidine-2,4-dione] | 19.7 µg/mL and 31.1 µM | 4 to 30 µg/mL (≈ 6.31 to 47.3 µM) | 19.5 µg/mL and 30.8 µM | 19.1 µg/mL and 30.1 µM | 4 to 30 µg/mL (≈ 6.31 to 47.3 µM) |  | 16 µg/mL and 25.2 µM | 4 to 30 µg/mL (≈ 6.31 to 47.3 µM) |  |  |  |  |  |  |  | 
O=c1[nH]cc(F)c(=O)[nH]1 [5-fluorouracil, reference compound] | 2.78 µg/mL and 21.4 µM | < 4 µg/mL | 2.86 µg/mL and 22 µM | 2.73 µg/mL and 21 µM | < 4 µg/mL |  | 2.37 µg/mL and 18.2 µM | < 4 µg/mL |  |  |  | medium-activity | Medium cytotoxic activity |  |  | 
O=c1[nH]c(=O)n([C@H]2C[C@H](O)[C@@H](CO)O2)cc1F [5-fluoro-2′-deoxyuridine, reference compound] | 3.3 µg/mL and 13.4 µM | < 4 µg/mL | 3.37 µg/mL and 13.7 µM | 3.2 µg/mL and 13 µM | < 4 µg/mL |  | 2.81 µg/mL and 11.4 µM | < 4 µg/mL |  |  |  | medium-activity |  | Medium cytotoxic activity |  | 
C=CC1C[N@@]2CCC1C[C@H]2[C@H](OCc1cn(CC2OC(n3cc(F)c(=O)[nH]c3=O)CC2O)nn1)c1ccnc2ccccc12 (stereo partly shown) [PCD5AFU, 5-Fluoro-1-(4-hydroxy-5-{4-[quinolin-4-yl-(5-vinyl-1-aza-bicyclo[2.2.2]oct-2-yl)-methoxymethyl]-[1,2,3]triazol-1-ylmethyl}-tetrahydrofuran-2-yl)-1H-pyrimidine-2,4-dione] | 17.8 µg/mL and 29.5 µM | 4 to 30 µg/mL (≈ 6.63 to 49.7 µM) | 17.5 µg/mL and 29 µM | 18.8 µg/mL and 29.8 µM | 4 to 30 µg/mL (≈ 6.63 to 49.7 µM) |  | 11.8 µg/mL and 19.6 µM | 4 to 30 µg/mL (≈ 6.63 to 49.7 µM) |  |  |  |  |  |  |  | 
C=CC1C[N@@]2CCC1C[C@@H]2[C@@H](OCc1cn(CC2OC(n3cc(F)c(=O)[nH]c3=O)CC2O)nn1)c1ccnc2ccccc12 (stereo partly shown) [PCN5AFU, 5-Fluoro-1-(4-hydroxy-5-{4-[quinolin-4-yl-(5-vinyl-1-aza-bicyclo[2.2.2]oct-2-yl)-methoxymethyl]-[1,2,3]triazol-1-ylmethyl}-tetrahydrofuran-2-yl)-1H-pyrimidine-2,4-dione] | 2.7 µg/mL and 4.47 µM | < 4 µg/mL | 2.4 µg/mL and 3.98 µM | 2.7 µg/mL and 4.47 µM | < 4 µg/mL | comparable activity | 2.4 µg/mL and 3.98 µM | < 4 µg/mL | 3 fold | 1.4 fold | 1.6 fold |  |  |  |  | 
COc1ccc2nccc([C@@H](O)[C@@H]3CC4CC[N@]3CC4c3cn(CC4OC(n5cc(F)c(=O)[nH]c5=O)CC4O)nn3)c2c1 (stereo partly shown) [QN5AFU, 5-Fluoro-1-[4-hydroxy-5-(4-{6-[hydroxy-(6-methoxy-quinolin-4-yl)-methyl]-1-aza-bicyclo[2.2.2]oct-3-yl}-[1,2,3]triazol-1-ylmethyl)-tetrahydrofuran-2-yl]-1H-pyrimidine-2,4-dione] | 16 µg/mL and 26.9 µM | 4 to 30 µg/mL (≈ 6.74 to 50.5 µM) | 12.6 µg/mL and 21.2 µM | 12 µg/mL and 20.2 µM | 4 to 30 µg/mL (≈ 6.74 to 50.5 µM) |  | 12 µg/mL and 20.2 µM | 4 to 30 µg/mL (≈ 6.74 to 50.5 µM) |  |  |  |  |  |  |  | 
COc1ccc2nccc([C@H](O)[C@H]3CC4CCN3CC4c3cn(CC4OC(n5cc(F)c(=O)[nH]c5=O)CC4O)nn3)c2c1 (stereo partly shown) [QD5AFU, 5-Fluoro-1-[4-hydroxy-5-(4-{6-[hydroxy-(6-methoxy-quinolin-4-yl)-methyl]-1-aza-bicyclo[2.2.2]oct-3-yl}-[1,2,3]triazol-1-ylmethyl)-tetrahydrofuran-2-yl]-1H-pyrimidine-2,4-dione] | 8 µg/mL and 13.5 µM | 4 to 30 µg/mL (≈ 6.74 to 50.5 µM) | 8.9 µg/mL and 15 µM | 7.3 µg/mL and 12.3 µM | 4 to 30 µg/mL (≈ 6.74 to 50.5 µM) |  | 6.1 µg/mL and 10.3 µM | 4 to 30 µg/mL (≈ 6.74 to 50.5 µM) |  |  |  |  |  |  |  | 
C=CC1C[N@@]2CCC1C[C@H]2[C@H](OCc1cn(CC2OC(n3cc(F)c(=O)[nH]c3=O)CC2O)nn1)c1ccnc2ccc(OC)cc12 (stereo partly shown) [PQN5AFU, 5-Fluoro-1-(4-hydroxy-5-{4-[(6-methoxy-quinolin-4-yl)-(5-vinyl-1-aza-bicyclo[2.2.2]oct-2-yl)-methoxymethyl]-[1,2,3]triazol-1-ylmethyl}-tetrahydrofuran-2-yl)-1H-pyrimidine-2,4-dione] | 29.4 µg/mL and 46.4 µM | 4 to 30 µg/mL (≈ 6.31 to 47.3 µM) | 31 µg/mL and 48.9 µM | 29 µg/mL and 45.8 µM | 4 to 30 µg/mL (≈ 6.31 to 47.3 µM) |  | 27 µg/mL and 42.6 µM | 4 to 30 µg/mL (≈ 6.31 to 47.3 µM) |  |  |  |  |  |  |  | 
[N-]=[N+]=NC[C@H]1O[C@@H](n2cc(F)c(O)nc2=O)C[C@@H]1O [5′-azido-2′,5′-dideoxy-5-fluorouridine, reference compound] | 7 µg/mL and 25.8 µM | 4 to 30 µg/mL (≈ 14.7 to 111 µM) | 7 µg/mL and 25.8 µM | 7.8 µg/mL and 28.8 µM | 4 to 30 µg/mL (≈ 14.7 to 111 µM) |  | 7.4 µg/mL and 27.3 µM | 4 to 30 µg/mL (≈ 14.7 to 111 µM) |  |  |  |  |  |  | Medium cytotoxic activity | 100%
O=c1[nH]c(=O)n(C2CC(O)C(Cn3cc(C4C[N@@]5CCC4C[C@H]5[C@H](O)c4ccnc5ccccc45)nn3)O2)cc1F (stereo partly shown) [CD5AFU, 5-Fluoro-1-(4-hydroxy-5-{4-[6-(hydroxy-quinolin-4-yl-methyl)-1-aza-bicyclo[2.2.2]oct-3-yl]-[1,2,3]triazol-1-ylmethyl}-tetrahydrofuran-2-yl)-1H-pyrimidine-2,4-dione] | 15.2 µg/mL and 27 µM | 4 to 30 µg/mL (≈ 7.1 to 53.2 µM) | 15 µg/mL and 26.6 µM | 13 µg/mL and 23.1 µM | 4 to 30 µg/mL (≈ 7.1 to 53.2 µM) |  | 11.4 µg/mL and 20.2 µM | 4 to 30 µg/mL (≈ 7.1 to 53.2 µM) |  |  |  |  |  |  |  | 
